These results are taken from patent US20040087539A1, “Method of treating conditions related to platelet activity” (priority 2003, published 2004).

Molecules are shown by their SMILES.

For assay [1], the system named is platelets. In words: Low-dose α-thrombin-induced aggregation of washed platelets. The format is cell-based, human. The method, then:
(§1) Fresh blood from healthy volunteers was anticoagulated with 1/7 volume of ACD (2.5% trisodium citrate, 2% dextrose and 1.5% citric acid). Platelets were washed with CGS buffer (sodium chloride 0.12 M, trisodium citrate 0.0129 M and d-glucose 0.03 M, pH 6.5), resuspended in modified Tyrode's solution and allowed to incubate at 22° C. for 1 hours as previously described. In experiments using platelet-rich plasma (PRP), 1/10 volume of 3.8% trisodium citrate was used as anticoagulant. Platelet aggregation was measured using a turbidometric platelet aggregometer (Chrono-Log) at 37° C. vWF-dependent platelet aggregation was induced by addition of ristocetin or botrocetin to PRP. To differentiate CPIb-IX-mediated platelet agglutination from the second wave of integrin-dependent platelet aggregation, final concentrations of ristocetin were adjusted in each experiment to achieve a two-wave curve of aggregation. Washed platelets were used in platelet aggregation induced by a-thrombin (Enzyme Research Laboratories). To examine the effects of PKG, 100 μM of membrane permeable cGMP analogs, 8-bromo-cGMP or 8-dibutyl-cGMP (Calbiochem), or 1 μM sildenafil citrate (Pfizer) and added simultaneously with subthreshold concentrations of agonists. PKG inhibitors KT5823 (2 pM) and Rp-8PCPT-cGMP (0.2 mM) were preincubated with platelets at 37° C. for 5 minutes before addition of agonists.
In FIG. 5A, washed platelets were preincubated with 40 pg/mi anti-GPIba monoclonal antibody SZ2, integrin inhibitor RGDS, or inhibitors of PKG, KT5823 (2 μM) or Rp-8pCPT-cGMP (0.2 mM) (Calbiochem), for 5 min. Platelets also were preincubated with DMSO (vehicle for KT5823), KT5720 or buffer (Control) as controls. α-Thrombin (0.05 units/mi) then was added to induce platelet aggregation. Nonspecific JgG and RGES peptides also were examined as additional controls, but had no effect (not shown). In FIG. 5B, a subthreshold dose of thrombin was added to platelets immediately followed by addition of PKG activator 8-bromo-cGMP or buffer (Control). Shown in the figure are the representative results of at least three experiments.
(§2) In FIG. 6A, increasing concentrations of sildenafil or control 0.15 M NaCl solution were added to platelet-rich plasma followed by a subthreshold concentration of ristocetin. Platelet aggregation was recorded using a platelet aggregometer. In FIG. 6B, sildenafil or control buffer was added to washed platelets followed by addition of subthreshold doses of thrombin to induce platelet aggregation. It was noted that platelet aggregation occurs in the presence of sildenafil. The figure includes the representative results of at least three experiments.
(§3) In FIG. 7A, PRP was preincubated with 0.1 mM 8-bromo-cGMP for increasing lengths of time at 37° C. as indicated. The vWF modulator, ristocetin (1.25 mg/ml), then was added to induce platelet aggregation in a turbidometric platelet aggregometer. In FIG. 7B, PRP was preincubated with a high concentration of 8-bromo-cGMP (1 mM) for 5 minutes. Ristocetin then was added to induce platelet aggregation. In FIGS. 7C and 7D, washed platelets in modified Tyrode's solution were preincubated with 1 mM 8-bromo-cGMP (C), or various concentrations of 8-pCPT-cGMP (D) at 37° C. for 5 minutes. Thrombin (0.05 u/ml) then was added to induce platelet aggregation.

In assay [2] the test system is platelets. In words: Ristocetin-induced vWF-dependent platelet aggregation in platelet-rich plasma. The format is cell-based, human. The method, then: as §1
In FIG. 3A, platelet rich-plasma (PRP) was preincubated at 37° C. for 5 mm with PKG inhibitors KT5823 (2 pM) or Rp-8pCPT-cGMP (0.2 μM). PRP was also incubated with DMSO (vehicle for KT5823), a PKA inhibitor, KT5720 (2 pM), or buffer (Control). The vWF modulator, ristocetin, was then added to induce vWF-GPIb-IX interaction. […] In FIG. 3B, a subthreshold concentration of ristocetin was added to PRP immediately followed by addition of 8-bromo-cGMP or buffer (Control). PRP also was preincubated with integrin inhibitor RGDS before adding ristocetin and 8-bromo-cGMP. In FIG. 3C, platelets were preincubated with or without PKG inhibitor KT5823, then allowed to spread on vWF-coated glass chamber slides. Platelets were stained with an anti-GPIb antibody, and fluorescein-labeled secondary antibody. The slides were imaged under a confocal microscope (magnification =630×).
as §2, §3

With `Nc1nc2c(nc(Br)n2[C@@H]2O[C@@H]3COP(=O)(O)O[C@H]3[C@H]2O)c(=O)[nH]1` [8-bromo-cGMP], the “GPIb-IX-dependent platelet activation, agent added simultaneously with thrombin” value in the assay with platelets [1] (8-bromo-cGMP 100 μM, FIG. 5) is given as “promoted”. The “platelet aggregation together with a subthreshold concentration of thrombin” value in the assay with platelets [1] (washed platelets, thrombin 0.02 units/ml, FIGS. 5B, 6B) is given as “induced platelet aggregation”. The “preincubation time required to inhibit platelets” value with platelets [2] (1 mM 8-bromo-cGMP, FIGS. 7B, 7C) is “less than 5 minutes”. Moreover, the “preincubation time after which the inhibitory effect on platelet aggregation becomes significant” value in the assay on platelets [2] (8-bromo-cGMP 100 μM (0.1 mM), PRP, 37° C., ristocetin 1.25 mg/ml, FIG. 7A) was 10 min. In addition, the “GPIb-IX-dependent platelet activation, agent added simultaneously with ristocetin” value with platelets [2] (8-bromo-cGMP 100 μM, FIG. 7A) was “promoted”. Besides, the “platelet aggregation together with a subthreshold concentration of ristocetin” value in the assay on platelets [2] (PRP, agent added with subthreshold ristocetin (1 mg/mm [sic]) (or botrocetin), FIGS. 3B, 6A) was “induced integrin-dependent platelet aggregation”. In addition, the “preincubation time required for a slight inhibitory effect” value in the assay on platelets [2] (in some experiments, not shown) was 30 min.
